Measurements: ChEMBL document CHEMBL4411344, “Synthesis and biological evaluation of new long-chain squaramides as anti-chagasic agents in the BALB/c mouse model” (Bioorg Med Chem, 2019)
Activity calls are given as the source filed them. The calls are words filed in the database; no cut-off is given here.

Key:
Trypanosoma cruzi [1] = assay: (§1) Antitrypanosomal activity against Trypanosoma cruzi MHOM/Pe/2011/Arequipa DTU 5 trypomastigotes infected in Balb/c mouse assessed as parasite-free oesophagus at 20 mg/kg, po pretreated once daily for 5 consecutive days starting from day 10 post infection followed by cyclophosphamide-induced immunosuppression on day 100 post infection measured on day 127 post infection by PCR method; format: functional
[2] = Nephrotoxicity in Balb/c mouse infected with Trypanosoma cruzi MHOM/Pe/2011/Arequipa DTU 5 trypomastigotes assessed as decrease in serum urea level at 20 mg/kg, po once daily for 5 consecutive days starting from day 75 post infection measured on day 127 post infection relative to control; format: toxicity, organism-based; settings: in vivo
Trypanosoma cruzi [3] = assay: Antitrypanosomal activity against Trypanosoma cruzi MHOM/Pe/2011/Arequipa DTU 5 trypomastigotes infected in Balb/c mouse assessed as reduction in splenomegaly at 20 mg/kg, po once daily for 5 consecutive days starting from day 75 post infection measured on day 127 post infection relative to control; format: functional
Trypanosoma cruzi [4] = assay: as §1, with “bone marrow” for “oesophagus”; format: functional
Trypanosoma cruzi [5] = assay: as §1, with “as parasite-free heart at 20” for “as parasite-free oesophagus at 20”, “from day 75 post infection” for “from day 10 post infection”; format: functional
Trypanosoma cruzi [6] = assay: as §1, with “as parasite-free lungs at 20” for “as parasite-free oesophagus at 20”, “from day 75 post infection” for “from day 10 post infection”; format: functional
Trypanosoma cruzi [7] = assay: as §1, with “as parasite-free bone marrow at 20” for “as parasite-free oesophagus at 20”, “from day 75 post infection” for “from day 10 post infection”; format: functional
Trypanosoma cruzi [8] = assay: Antitrypanosomal activity against Trypanosoma cruzi MHOM/Pe/2011/Arequipa DTU 5 trypomastigotes infected in Balb/c mouse assessed as reduction in Ig-G level in serum at 20 mg/kg, po once daily for 5 consecutive days starting from day 10 post infection measured on day 100 post infection by ELISA; format: functional, organism-based
Trypanosoma cruzi [9] = assay: Antitrypanosomal activity against Trypanosoma cruzi MHOM/Pe/2011/Arequipa DTU 5 trypomastigotes infected in Balb/c mouse assessed as reduction in Ig-G level in serum at 20 mg/kg, po once daily for 5 consecutive days starting from day 75 post infection measured on day 81 post infection by ELISA; format: functional, organism-based
Trypanosoma cruzi [10] = assay: Antitrypanosomal activity against Trypanosoma cruzi MHOM/Pe/2011/Arequipa DTU 5 trypomastigotes infected in Balb/c mouse assessed as reduction in splenomegaly at 20 mg/kg, po once daily for 5 consecutive days starting from day 10 post infection measured on day 127 post infection relative to control; format: functional
[11] = (§2) Hepatotoxicity in Balb/c mouse infected with Trypanosoma cruzi MHOM/Pe/2011/Arequipa DTU 5 trypomastigotes assessed as increase in ratio of serum ALT to GPT level at 20 mg/kg, po once daily for 5 consecutive days starting from day 75 post infection measured on day 81 post infection relative to control; format: toxicity, organism-based; settings: in vivo
Trypanosoma cruzi [12] = assay: as §1, with “stomach” for “oesophagus”; format: functional
[13] = Toxicity in Balb/c mouse assessed as reduction in body mass at 20 mg/kg, po once daily for 5 consecutive days starting from day 75 post infection relative to control; format: organism-based; design: scale not given: the % may be the effect or the level left; settings: in vivo
Trypanosoma cruzi [14] = assay: as §1, with “heart” for “oesophagus”; format: functional
Trypanosoma cruzi [15] = assay: Antitrypanosomal activity against Trypanosoma cruzi MHOM/Pe/2011/Arequipa DTU 5 trypomastigotes infected in Balb/c mouse assessed as reduction in Ig-G level in serum at 20 mg/kg, po pretreated once daily for 5 consecutive days starting from day 10 post infection followed by cyclophosphamide-induced immunosuppression on day 100 post infection measured on day 127 post infection by ELISA; format: functional, organism-based
Trypanosoma cruzi [16] = assay: Antitrypanosomal activity against Trypanosoma cruzi MHOM/Pe/2011/Arequipa DTU 5 trypomastigotes infected in Balb/c mouse assessed as reduction in Ig-G level in serum at 20 mg/kg, po once daily for 5 consecutive days starting from day 10 post infection measured on day 16 post infection by ELISA; format: functional, organism-based
Trypanosoma cruzi [17] = assay: as §1, with “as parasite-free adipose tissue at 20” for “as parasite-free oesophagus at 20”, “from day 75 post infection” for “from day 10 post infection”; format: functional
Trypanosoma cruzi [18] = assay: Antitrypanosomal activity against Trypanosoma cruzi MHOM/Pe/2011/Arequipa DTU 5 trypomastigotes infected in Balb/c mouse assessed as reduction in parasitaemia reactivation at 20 mg/kg, po pretreated once daily for 5 consecutive days starting from day 10 post infection followed by cyclophosphamide-induced immunosuppression on day 100 post infection measured within 1 week post immunosuppression by Neubauer chamber method; format: functional; design: scale not given: the % may be the effect or the level left
Trypanosoma cruzi [19] = assay: as §1, with “adipose tissue” for “oesophagus”; format: functional
[20] = as §2, with “AST” for “ALT”, “GOT” for “GPT”; format: toxicity, organism-based; settings: in vivo
Trypanosoma cruzi [21] = assay: as §1, with “brain” for “oesophagus”; format: functional
Trypanosoma cruzi [22] = assay: as §1, with “as parasite-free spleen at 20” for “as parasite-free oesophagus at 20”, “from day 75 post infection” for “from day 10 post infection”; format: functional
[23] = Toxicity in Balb/c mouse assessed as death at 20 mg/kg, po once daily for 5 consecutive days starting from day 10 post infection; format: organism-based; settings: in vivo
[24] = Hepatotoxicity in Balb/c mouse infected with Trypanosoma cruzi MHOM/Pe/2011/Arequipa DTU 5 trypomastigotes assessed as increase in total bilirubin level at 20 mg/kg, po once daily for 5 consecutive days starting from day 75 post infection measured on day 81 post infection relative to control; format: toxicity, organism-based; settings: in vivo
Trypanosoma cruzi [25] = assay: as §1, with “as parasite-free muscle at 20” for “as parasite-free oesophagus at 20”, “from day 75 post infection” for “from day 10 post infection”; format: functional
Trypanosoma cruzi [26] = assay: as §1, with “as parasite-free brain at 20” for “as parasite-free oesophagus at 20”, “from day 75 post infection” for “from day 10 post infection”; format: functional
[27] = Toxicity in Balb/c mouse assessed as reduction in body mass at 20 mg/kg, po once daily for 5 consecutive days starting from day 10 post infection relative to control; format: organism-based; design: scale not given: the % may be the effect or the level left; settings: in vivo
Trypanosoma cruzi [28] = assay: as §1, with “muscle” for “oesophagus”; format: functional
Trypanosoma cruzi [29] = assay: as §1, with “lungs” for “oesophagus”; format: functional

Row | SMILES | Activity (Trypanosoma cruzi [1]) | Activity [2] | Activity (Trypanosoma cruzi [3]) | Activity (Trypanosoma cruzi [4]) | Activity (Trypanosoma cruzi [5]) | Activity (Trypanosoma cruzi [6]) | Activity (Trypanosoma cruzi [7]) | Activity (Trypanosoma cruzi [8]) | Activity (Trypanosoma cruzi [9]) | Activity (Trypanosoma cruzi [10]) | Activity [11] | Activity (Trypanosoma cruzi [12]) | Activity [13] | Activity (Trypanosoma cruzi [14]) | Activity (Trypanosoma cruzi [15]) | Activity (Trypanosoma cruzi [16]) | Activity (Trypanosoma cruzi [17]) | Activity (Trypanosoma cruzi [18]) | Activity (Trypanosoma cruzi [19]) | Activity [20] | further results
1 | O=C(Cn1ccnc1[N+](=O)[O-])NCc1ccccc1 [BENZNIDAZOLE] | 33% | 20 to 30 mg/dL | Active | 33% | 55% | 55% | 55% | Active | inactive | Active | 20 to 30 U/L | 33% | > 10% | 33% | Active | Active | 55% | 75% | 33% | 20 to 30 U/L | Activity (Trypanosoma cruzi [21]): 33%; Activity (Trypanosoma cruzi [22]): 55%; Activity [23]: Non-Toxic; Activity [24]: 30%; Activity (Trypanosoma cruzi [25]): 55%; Activity (Trypanosoma cruzi [26]): 55%; Activity [27]: > 10%; Activity (Trypanosoma cruzi [28]): 33%; Activity (Trypanosoma cruzi [29]): 33%
2 | CCCCCCNc1c(N(C)CCCN(C)C)c(=O)c1=O | inactive | 10 to 20 mg/dL | Active | inactive | inactive | inactive | inactive | inactive | inactive | Active | 20 to 30 U/L | inactive | > 10% | inactive | inactive | inactive | inactive | inactive | inactive | 10 to 20 U/L | Activity (Trypanosoma cruzi [21]): inactive; Activity (Trypanosoma cruzi [22]): inactive; Activity [23]: Non-Toxic; Activity [24]: 10%; Activity (Trypanosoma cruzi [25]): inactive; Activity (Trypanosoma cruzi [26]): inactive; Activity [27]: > 10%; Activity (Trypanosoma cruzi [28]): inactive; Activity (Trypanosoma cruzi [29]): inactive
3 | CCCCCCCCCCCCCCCCNc1c(N(C)CCCN(C)C)c(=O)c1=O | 67% | 10 to 20 mg/dL | 55% | 67% | 78% | 78% | 78% | Active | inactive | 66% | 20 to 30 U/L | 67% | > 10% | 67% | Active | Active | 78% | 26% | 67% | 10 to 20 U/L | Activity (Trypanosoma cruzi [21]): 67%; Activity (Trypanosoma cruzi [22]): 78%; Activity [23]: Non-Toxic; Activity [24]: 20%; Activity (Trypanosoma cruzi [25]): 78%; Activity (Trypanosoma cruzi [26]): 78%; Activity [27]: > 10%; Activity (Trypanosoma cruzi [28]): 67%; Activity (Trypanosoma cruzi [29]): 67%
